Data reported in PubChem BioAssay (NCI).
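Protocol summary: plate cells (96-well), add compound at 5 concentrations, incubate 48 h, interpolate endpoints linearly. GI50 marks 50% less growth. TGI: total growth inhibition.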

Assays:
Test in all cases: NCI-60 cell line screen, 48 h
786-0 renal = test system: 786-0 renal
A498 renal = test system: A498 renal
A549 NSCLC = test system: A549 NSCLC
ACHN renal = test system: ACHN renal
BT-549 breast = test system: BT-549 breast
CAKI-1 renal = test system: CAKI-1 renal
CCRF-CEM leukemia = test system: CCRF-CEM leukemia
COLO 205 colon = test system: COLO 205 colon
DU-145 prostate = test system: DU-145 prostate
EKVX NSCLC = test system: EKVX NSCLC
HCC-2998 colon = test system: HCC-2998 colon
HCT-116 colon = test system: HCT-116 colon
HCT-15 colon = test system: HCT-15 colon
HL-60(TB) leukemia = test system: HL-60(TB) leukemia
HOP-62 NSCLC = test system: HOP-62 NSCLC
HOP-92 NSCLC = test system: HOP-92 NSCLC
HS 578T breast = test system: HS 578T breast
HT29 colon = test system: HT29 colon
IGROV1 ovarian = test system: IGROV1 ovarian
K-562 leukemia = test system: K-562 leukemia
KM12 colon = test system: KM12 colon
LOX IMVI melanoma = test system: LOX IMVI melanoma
MALME-3M melanoma = test system: MALME-3M melanoma
MCF7 breast = test system: MCF7 breast
MOLT-4 leukemia = test system: MOLT-4 leukemia
NCI-H226 lung = test system: NCI-H226 lung
NCI-H460 lung = test system: NCI-H460 lung
NCI-H522 lung = test system: NCI-H522 lung
NCI/ADR-RES ovarian = test system: NCI/ADR-RES ovarian
OVCAR-3 ovarian = test system: OVCAR-3 ovarian
OVCAR-4 ovarian = test system: OVCAR-4 ovarian
OVCAR-5 ovarian = test system: OVCAR-5 ovarian
OVCAR-8 ovarian = test system: OVCAR-8 ovarian
PC-3 prostate = test system: PC-3 prostate
RPMI-8226 leukemia = test system: RPMI-8226 leukemia
RXF 393 renal = test system: RXF 393 renal
SF-268 CNS = test system: SF-268 CNS
SF-295 CNS = test system: SF-295 CNS
SF-539 CNS = test system: SF-539 CNS
SK-MEL-2 melanoma = test system: SK-MEL-2 melanoma
SK-MEL-28 melanoma = test system: SK-MEL-28 melanoma
SK-MEL-5 melanoma = test system: SK-MEL-5 melanoma
SK-OV-3 ovarian = test system: SK-OV-3 ovarian
SN12C renal = test system: SN12C renal
SNB-19 CNS = test system: SNB-19 CNS
SNB-75 CNS = test system: SNB-75 CNS
SR leukemia = test system: SR leukemia
SW-620 colon = test system: SW-620 colon
T-47D breast = test system: T-47D breast
TK-10 renal = test system: TK-10 renal
U251 CNS = test system: U251 CNS
UACC-257 melanoma = test system: UACC-257 melanoma
UACC-62 melanoma = test system: UACC-62 melanoma
UO-31 renal = test system: UO-31 renal

For `COc1cc(C2=NNC(c3ccc(N(C)C)cc3)C2)cc(OC)c1OC` (stereo not drawn), the GI50 (786-0 renal) was 1.93 µM, the TGI (786-0 renal) was > 100 µM and the GI50 (A498 renal) was 2.87 µM. For the same compound, the TGI (A498 renal) was 8.84 µM, the GI50 (A549 NSCLC) was 3.94 µM and the TGI (A549 NSCLC) was > 100 µM. The GI50 (ACHN renal) was 11.3 µM, the TGI (ACHN renal) was > 100 µM and the GI50 (BT-549 breast) was 0.811 µM. The TGI (BT-549 breast) was 10.3 µM, the GI50 (CAKI-1 renal) was 2.68 µM and the TGI (CAKI-1 renal) was > 100 µM. For the same compound, the GI50 (CCRF-CEM leukemia) was 1.62 µM, the TGI (CCRF-CEM leukemia) was 6.22 µM and the GI50 (COLO 205 colon) was 2.39 µM. The TGI (COLO 205 colon) was 12.5 µM, the GI50 (DU-145 prostate) was 1.88 µM and the TGI (DU-145 prostate) was 5.41 µM. For the same compound, the GI50 (EKVX NSCLC) was 2.02 µM, the TGI (EKVX NSCLC) was 6.02 µM and the GI50 (HCC-2998 colon) was 1.4 µM. It also gave a TGI (HCC-2998 colon) of 4.6 µM, a GI50 (HCT-116 colon) of 2.03 µM and a TGI (HCT-116 colon) of 19.7 µM. The GI50 (HCT-15 colon) was 2.48 µM, the TGI (HCT-15 colon) was > 100 µM and the GI50 (HL-60(TB) leukemia) was 1.62 µM. For the same compound, the TGI (HL-60(TB) leukemia) was 4.96 µM, the GI50 (HOP-62 NSCLC) was 1.13 µM and the TGI (HOP-62 NSCLC) was > 100 µM. For the same compound, the GI50 (HOP-92 NSCLC) was 3.77 µM, the TGI (HOP-92 NSCLC) was > 100 µM and the GI50 (HS 578T breast) was 2.24 µM. For the same compound, the TGI (HS 578T breast) was 5.96 µM, the GI50 (HT29 colon) was 0.667 µM and the TGI (HT29 colon) was > 100 µM. The GI50 (IGROV1 ovarian) was 0.546 µM, the TGI (IGROV1 ovarian) was 3.06 µM and the GI50 (K-562 leukemia) was 0.406 µM. It also gave a TGI (K-562 leukemia) of 74.5 µM, a GI50 (KM12 colon) of 0.525 µM and a TGI (KM12 colon) of 12.4 µM. The GI50 (LOX IMVI melanoma) was 7.18 µM, the TGI (LOX IMVI melanoma) was > 100 µM and the GI50 (MALME-3M melanoma) was 7.85 µM. The TGI (MALME-3M melanoma) was > 100 µM, the GI50 (MCF7 breast) was 0.433 µM and the TGI (MCF7 breast) was > 100 µM. The GI50 (MOLT-4 leukemia) was 2.81 µM, the TGI (MOLT-4 leukemia) was 11.4 µM and the GI50 (NCI-H226 lung) was 54.7 µM. For the same compound, the TGI (NCI-H226 lung) was > 100 µM, the GI50 (NCI-H460 lung) was 1.14 µM and the TGI (NCI-H460 lung) was 6.83 µM. The GI50 (NCI-H522 lung) was 2 µM, the TGI (NCI-H522 lung) was 5.74 µM and the GI50 (NCI/ADR-RES ovarian) was 2.2 µM. For the same compound, the TGI (NCI/ADR-RES ovarian) was > 100 µM, the GI50 (OVCAR-3 ovarian) was 6.07 µM and the TGI (OVCAR-3 ovarian) was > 100 µM. For the same compound, the GI50 (OVCAR-4 ovarian) was 16.9 µM, the TGI (OVCAR-4 ovarian) was > 100 µM and the GI50 (OVCAR-5 ovarian) was 4.73 µM. For the same compound, the TGI (OVCAR-5 ovarian) was > 100 µM, the GI50 (OVCAR-8 ovarian) was 4.13 µM and the TGI (OVCAR-8 ovarian) was > 100 µM. For the same compound, the GI50 (PC-3 prostate) was 0.781 µM, the TGI (PC-3 prostate) was > 100 µM and the GI50 (RPMI-8226 leukemia) was 1.71 µM. It also gave a TGI (RPMI-8226 leukemia) of 11.7 µM, a GI50 (RXF 393 renal) of 1.2 µM and a TGI (RXF 393 renal) of 4.83 µM. For the same compound, the GI50 (SF-268 CNS) was 2.09 µM, the TGI (SF-268 CNS) was > 100 µM and the GI50 (SF-295 CNS) was 0.249 µM. The TGI (SF-295 CNS) was 0.799 µM, the GI50 (SF-539 CNS) was 0.56 µM and the TGI (SF-539 CNS) was 2.89 µM. For the same compound, the GI50 (SK-MEL-2 melanoma) was 3.18 µM, the TGI (SK-MEL-2 melanoma) was 26.2 µM and the GI50 (SK-MEL-28 melanoma) was 15.6 µM. For the same compound, the TGI (SK-MEL-28 melanoma) was > 100 µM, the GI50 (SK-MEL-5 melanoma) was 2.09 µM and the TGI (SK-MEL-5 melanoma) was 7.15 µM. For the same compound, the GI50 (SK-OV-3 ovarian) was 4.22 µM, the TGI (SK-OV-3 ovarian) was > 100 µM and the GI50 (SN12C renal) was 4.63 µM. For the same compound, the TGI (SN12C renal) was > 100 µM, the GI50 (SNB-19 CNS) was 1.82 µM and the TGI (SNB-19 CNS) was > 100 µM. The GI50 (SNB-75 CNS) was 1.02 µM, the TGI (SNB-75 CNS) was > 100 µM and the GI50 (SR leukemia) was 0.25 µM. The TGI (SR leukemia) was 8.06 µM, the GI50 (SW-620 colon) was 0.45 µM and the TGI (SW-620 colon) was > 100 µM. The GI50 (T-47D breast) was 19.8 µM, the TGI (T-47D breast) was > 100 µM and the GI50 (TK-10 renal) was 10.1 µM. The TGI (TK-10 renal) was > 100 µM, the GI50 (U251 CNS) was 0.672 µM and the TGI (U251 CNS) was > 100 µM. The GI50 (UACC-257 melanoma) was 8.61 µM, the TGI (UACC-257 melanoma) was 47.4 µM and the GI50 (UACC-62 melanoma) was 4.37 µM. The TGI (UACC-62 melanoma) was > 100 µM, the GI50 (UO-31 renal) was 4.75 µM and the TGI (UO-31 renal) was 50.6 µM.
